Data as given in PubChem BioAssay AID1919013 (Molecular Pharmacology Branch, DTP, NCI, 2023).

Tested on: LG0703-F498-PDC complex spheroid growth
Assay: Anticancer human tumor LG0703-F498-PDC patient-derived lung adenocarcinoma cell line growth inhibition [AhR]
Conditions: for IC50: curve of first compound; for viability, T/C: stronger effect = lower value
Source text: Multicellular complex tumor spheroid response to aryl hydrocarbon receptor antagonists in combination with a variety of drugs and investigational agents in selected tumor cell lines
The current study was undertaken to assess response to aryl hydrocarbon receptor antagonists in combination with standard-of-care drugs and investigational agents in solid tumor complex spheroid models. Complex spheroids include a stromal component modeled by human endothelial cells (HUVEC) and fibroblasts modeled by human mesenchymal stem cells (MSCs). The concentration ranges selected for each drug and investigational agent were based upon clinically achievable concentrations if the clinical Cmax of the agent was known.
Compounds. The drugs and investigational agents: BAY 2416964 (NSC825713), GNF351 (NSC835774), CH-223191 (NSC835775), CPI-455 (NSC825282), aza-TdCyd (NSC777586), decitabine (NSC127716), belinostat (NSC758774), entinostat (NSC756642), pevonedistat (NSC761192), tazemetostat (NSC777109), talazoparib (NSC765396), olaparib (NSC753686), selinexor (NSC780203), nedisertib (M3814, NSC802822), bortezomib (NSC756655), venetoclax (NSC766270), doxorubicin (NSC123127), elimusertib (BAY189344, NSC800525), ceralasertib (AZD6738, NSC777638), TAK-243 (NSC785004), alisertib (NSC759677), etoposide (NSC141540), topotecan (NSC609699), eribulin (NSC707389), gemcitabine (NSC613327), carboplatin (NSC241240), cisplatin (NSC119875), and SN-38 (NSC673596) were obtained from the National Cancer Institute (NCI) Developmental Therapeutics Program Chemical Repository (32). The FDA-approved anticancer drug set is available from the Developmental Therapeutics Program at https://dtp.cancer.gov/organization/dscb/obtaining/available plates.htm. […] The stock solutions were prepared in dimethyl sulfoxide (DMSO, Sigma-Aldrich, St. Louis, MO, cat. D2650), except for the platinum compounds which were prepared in saline (Quality Biological, Gaithersburg, MD, cat. 114-055-101), at 800-fold the tested concentration and stored at -70 degrees C prior to their use. All drugs and investigational agents were tested over a range starting from a high concentration at or near the clinical Cmax and decreasing in half-log increments. If the clinical Cmax for an agent had not been determined, the highest concentration tested was 10 microM (Table 1).
Cell Culture. All cells were maintained in an incubator at 37 degrees C and 5% CO2 with 95% humidity. The PDC lines were cultured according to standard operating procedures established by the NCI PDMR (https://pdmr.cancer.gov). Briefly, all PDCs were thawed and cultured in Matrigel-coated flasks prepared with a working solution of 1X Ham's F-12 nutrient mix, without supplementation (Invitrogen, Waltham, MA, cat. 11765054), 100 U/mL penicillin-streptomycin (Invitrogen, cat. 15140122), and 2.5% Matrigel (Corning Inc., Corning, NY, cat. 354248) for the first three passages. All PDCs were cultured in complete DMEM/F-12 media containing advanced DMEM/F-12 (Invitrogen, cat. 12634028), 4.9% defined fetal bovine serum, heat inactivated (HyClone Laboratories Inc., Logan, UT, cat. SH30070.03HI), 389 ng/mL hydrocortisone (Sigma-Aldrich, cat. H4001), 9.7 ng/mL human EGF recombinant protein (Invitrogen, cat. PHG0313), 23.4 microg/mL adenine (Sigma-Aldrich, cat. A2786), 97.3 U/mL penicillin-streptomycin (Invitrogen, cat. 15140122), 1.9 mM L-glutamine (Invitrogen, cat. 25030081), and 9.7 microM Y-27632 dihydrochloride (Tocris Bioscience, Bristol, United Kingdom, cat. 1254). The PDCs were cultured in complete DMEM/F12 media without 10 microM Y-27632 dihydrochloride for at least two passages prior to the screen. The established cell lines NCI-H1341 and […] were cultured in DMEM/F-12, HEPES (Invitrogen, cat. 11330032), 5% defined fetal bovine serum (HyClone Laboratories Inc., cat. SH30070.03), ITS premix universal culture supplement [insulin (5 microg/mL), transferrin (5 microg/mL), and selenious acid (5 ng/mL)] […]
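Note: luminescence taken as a proxy for viable cell amount.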
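Throughout, for viability, T/C: percent of DMSO vehicle control where 100% means growth equal to vehicle.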

## CCc1c2c(nc3ccc(O)cc13)-c1cc3c(c(=O)n1C2)COC(=O)[C@]3(O)CC + CC(CO)NC(=O)c1cc(-c2ccc(Cl)cc2)nn(-c2cnn(C)c2)c1=O
Second compound 0.1 µM
  IC50: 47.4 nM
Second compound 0.316 µM
  IC50: 24.4 nM
Second compound 1 µM
  IC50: 28.3 nM
Second compound 3.16 µM
  IC50: 19.8 nM
Second compound 10 µM
  IC50: 15.7 nM
Second compound 0.1 µM, first compound 0.000949 µM
  viability, T/C: 96.2%
Second compound 0.1 µM, first compound 0.003 µM
  viability, T/C: 84.6%
Second compound 0.1 µM, first compound 0.00949 µM
  viability, T/C: 69.7%
Second compound 0.1 µM, first compound 0.03 µM
  viability, T/C: 54%
Second compound 0.1 µM, first compound 0.0949 µM
  viability, T/C: 44%
Second compound 0.1 µM, first compound 0.3 µM
  viability, T/C: 26.3%
Second compound 0.316 µM, first compound 0.000949 µM
  viability, T/C: 82.8%
Second compound 0.316 µM, first compound 0.003 µM
  viability, T/C: 94.1%
Second compound 0.316 µM, first compound 0.00949 µM
  viability, T/C: 62.5%
Second compound 0.316 µM, first compound 0.03 µM
  viability, T/C: 46.9%
Second compound 0.316 µM, first compound 0.0949 µM
  viability, T/C: 36.9%
Second compound 0.316 µM, first compound 0.3 µM
  viability, T/C: 24.3%
Second compound 1 µM, first compound 0.000949 µM
  viability, T/C: 79%
Second compound 1 µM, first compound 0.003 µM
  viability, T/C: 75.6%
Second compound 1 µM, first compound 0.00949 µM
  viability, T/C: 67.8%
Second compound 1 µM, first compound 0.03 µM
  viability, T/C: 48.9%
Second compound 1 µM, first compound 0.0949 µM
  viability, T/C: 32.6%
Second compound 1 µM, first compound 0.3 µM
  viability, T/C: 26%
Second compound 3.16 µM, first compound 0.000949 µM
  viability, T/C: 72.7%
Second compound 3.16 µM, first compound 0.003 µM
  viability, T/C: 73.2%
Second compound 3.16 µM, first compound 0.00949 µM
  viability, T/C: 58.5%
Second compound 3.16 µM, first compound 0.03 µM
  viability, T/C: 45.6%
Second compound 3.16 µM, first compound 0.0949 µM
  viability, T/C: 27.8%
Second compound 3.16 µM, first compound 0.3 µM
  viability, T/C: 22.5%
Second compound 10 µM, first compound 0.000949 µM
  viability, T/C: 72%
Second compound 10 µM, first compound 0.003 µM
  viability, T/C: 74%
Second compound 10 µM, first compound 0.00949 µM
  viability, T/C: 56.5%
Second compound 10 µM, first compound 0.03 µM
  viability, T/C: 40.5%
Second compound 10 µM, first compound 0.0949 µM
  viability, T/C: 26.4%
Second compound 10 µM, first compound 0.3 µM
  viability, T/C: 24.5%
